Like-named read-outs stand apart in the source and are kept apart here.

The values below come from US12319681B2, “Tripartite androgen receptor eliminators, methods and uses thereof” (SPG Therapeutics, Inc., priority 2017, dated 2025).

Data set [1] addresses T1, androgen receptor (AR) (Homo sapiens, UniProt P10275).
T1 construct: human keratinocytes transfected with an AR luciferase reporter gene; endogenous in cells; host or cells: normal human adult primary epidermal keratinocytes (ATCC PCS-200-011)
T1 sequence (P10275 1-920): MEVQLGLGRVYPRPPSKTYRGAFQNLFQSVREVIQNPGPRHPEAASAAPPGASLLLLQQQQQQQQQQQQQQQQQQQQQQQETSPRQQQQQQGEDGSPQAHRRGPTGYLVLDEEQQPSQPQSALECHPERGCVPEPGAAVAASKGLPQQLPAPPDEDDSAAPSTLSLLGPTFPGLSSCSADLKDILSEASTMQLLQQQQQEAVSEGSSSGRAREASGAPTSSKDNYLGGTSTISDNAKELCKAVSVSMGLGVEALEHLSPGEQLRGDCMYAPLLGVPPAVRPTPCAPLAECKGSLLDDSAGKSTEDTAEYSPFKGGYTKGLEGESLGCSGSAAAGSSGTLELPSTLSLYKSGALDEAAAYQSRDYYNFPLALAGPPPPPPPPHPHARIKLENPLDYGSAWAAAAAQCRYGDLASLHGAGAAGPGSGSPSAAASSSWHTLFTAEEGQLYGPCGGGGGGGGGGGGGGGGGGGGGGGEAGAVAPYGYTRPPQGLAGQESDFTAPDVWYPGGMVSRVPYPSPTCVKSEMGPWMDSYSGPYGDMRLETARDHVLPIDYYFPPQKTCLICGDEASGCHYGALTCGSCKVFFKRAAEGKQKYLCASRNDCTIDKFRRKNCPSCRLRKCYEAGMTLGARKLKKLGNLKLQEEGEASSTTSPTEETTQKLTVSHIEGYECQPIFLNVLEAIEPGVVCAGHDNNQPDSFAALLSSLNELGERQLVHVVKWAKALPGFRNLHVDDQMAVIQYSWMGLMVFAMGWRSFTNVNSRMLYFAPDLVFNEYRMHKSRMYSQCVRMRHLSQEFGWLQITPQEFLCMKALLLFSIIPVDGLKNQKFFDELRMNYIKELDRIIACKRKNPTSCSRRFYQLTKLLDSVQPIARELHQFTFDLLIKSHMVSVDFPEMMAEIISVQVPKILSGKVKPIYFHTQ
Description: Keratinocyte AR Reporter Gene Assay, 24 and 72 hours continuous exposure (Example 12). In kind it is cell-based. The following applies: keratinocytes. The method, then:
(§1) To assess ARE-mediated inhibition, an AR luciferase assay was performed. After washing cells with 1×PBS, 20 μL lysis buffer (25 mM Tris/phosphate, 4 mM EGTA, 1% Triton, 10% glycerol, 2 mM DTT) was added per well, incubated for 5 minutes with gentle shaking and store at −80° C. On the day of assay, the plates were thawed to ambient temperature and 80 μL of assay buffer (25 mM glycylglycine, 15 mM MgCl2. 5 mM ATP, 0.1 mg/ml BSA) was added to each well. Plates are then processed on a microplate reader (POLARstar Omega) by injecting 100 μL of 1 mM D-luciferin per well, followed by chemiluminescence measurement of 3 seconds at onset of injection. Luciferase activity was determined, measured, and normalized to Relative Light Units (RLU). AR reporter gene activity reduction values were calculated as follows: AR reporter gene activity=1−(average signal (treatment group)/average signal (treatment group without drug).
This example illustrates how to determine the inhibitory activity of an ARE disclosed herein using a cell-based androgen receptor transcriptional reporter assay using primary human keratinocytes.
Results were analyzed for IC50 and IC90 values in GraphPad Prism using a four-parameter logistic curve equation. Bottom constraints were set to 1 (level of uninduced control).
In general terms: A reporter such as luciferase makes a cellular process visible.

For data set [2], the system named is MDA-kb2 mammary gland breast cancer cell line. Description: MDA-kb2 cell viability (Trypan Blue exclusion). To be noted: MDA-kb2, 1.0 nM DHT, 24 hours.
Description: (§3) For the MDA-kb2 assay, MDA-kb2 mammary gland breast cancer cell line was maintained in L-15 media (Gibco) supplemented with 10% FBS, 100 U/mL penicillin, 100 μg/mL streptomycin, and 0.25 μg/mL amphotericin B at 37° C., without CO2. For experiments, cells were plated at 1.0×10^4 cells (50% confluence) per well in 100 μL of medium in 96-well plates. When cells were attached (after 6 hours), medium was removed and replaced with dosing medium containing 10% charcoal stripped FBS.
(§4) A 5α-Androstan-17β-ol-3-one (DHT) stock solution was prepared at 1,000× in ethanol. Each ARE tested was prepared in DMSO. Dosing medium was prepared at the time of treatment by serial diluting stock solution into medium. Ethanol concentrations in media never exceeded 0.1%. […] Negative control wells contained 100 μL medium/well with 1 μL of ethanol/mL of medium and an appropriate amount of DMSO. Each plate also contained 1.0 nM DHT with an ARE or without an ARE as a positive control. Cells were incubated 24 hours at 37° C. without CO2.
(§5) To assess for cell viability, cells were first visually examined under a phase-contrast microscope to record cell confluence, morphological changes, and presence of drug crystallization as well as to observe signs of cytotoxity such as, e.g., detachment, vacuolization, membrane degradation, or lack of phase brightness. After microscopic inspection, a Trypan Blue exclusion assay was performed to assess cell viability and cell number for each well. Each well was washed with 0.5 mL volume of PBS. 30 µL of Trypan Blue was added to each well for 5-10 minutes. Total cell number and total viable cell number will be counted from 1 number of fields per well, in triplicate.
The test system of data set [3] is normal Human Adult Primary Epidermal Keratinocyte cell line. Description: Keratinocyte cell viability (Trypan Blue exclusion, Example 10). The following applies: keratinocytes, 1.0 nM DHT, 24 hours.
Description: For the Keratinocyte assay, normal Human Adult Primary Epidermal Keratinocyte cell line (ATCC PCS-200-011) was maintained in EPIUFE® Medium, with 60 μM calcium (Thermo MEPISOOCA) supplemented with Human Keratinocyte Growth Supplement, 100 U/mL penicillin, and 100 μg/mL streptomycin at 37° C. with 5% C02. For experiments, cells were seeded at 70% confluence per well in 100 μL of medium in 96-well plates. […] After 16 hours, medium was removed and replaced with dosing medium.
A 5α-Androstan-17β-ol-3-one (DHT) stock solution was prepared at 1,000× in ethanol. […] Dosing medium was prepared at the time of treatment by serial diluting stock solution into medium. Ethanol concentrations in media never exceeded 0.1%. […] Negative control wells contained 100 μL medium/well with 1 μL of ethanol/mL of medium and an appropriate amount of DMSO. Each plate also contained 1.0 nM DHT with an ARE or without an ARE as a positive control. Cells were incubated 24 hours at 37° C. without CO2.
as §5
For data set [4] the test system is unchanged. To be noted: 72 h.
Another data set is described as follows: in vitro. To be noted: human.
Data set [5] concerns MDA-kb2 mammary gland breast cancer cell line. To be noted: human, 24 h.
Description: as §3, §4, §5
The target of data set [6] is androgen receptor (AR) (Homo sapiens, UniProt P10275). Description: MDA-kb2 AR luciferase reporter gene assay (1.0 nM DHT). The format is cell-based. To be noted: MDA-kb2, 24 h, read-out: Gene Activity Reduction. The method, then:
This example illustrates how to determine the inhibitory activity of an ARE disclosed herein using a cell-based androgen receptor transcriptional reporter assay using an engineered cell line.
(§2) Each ARE tested was prepared in DMSO. […] Ethanol concentrations in media never exceeded 0.1%.
as §1

The nature of data set [7]: Hamster Skin Penetration Assays. The following applies: 8-hour time point.
Description: The applied formulation dose for each sample was 10.0 μL and each sample was run in four replicates. The samples were evaluated at the 8-hour time point for compound absorption in epidermal and dermal layers and penetration into receptor medium.
Data set [8] deals with T1, androgen receptor (AR). Description: Keratinocyte AR luciferase reporter gene assay (Example 10). The format is cell-based. To be noted: keratinocytes, 1.0 nM DHT, 24 hours, read-out: Gene Activity Reduction. On the procedure:
as §2, §1

Data set [9] addresses T1, androgen receptor (AR). Description: Keratinocyte AR protein level ELISA (Example 10). In kind it is cell-based. To be noted: 24 h, keratinocytes, AR protein level by ELISA, read-out: AR Reduction. The method, then:
as §2
To assess levels of AR, an ELISA was performed.
A general note: ELISA stands for enzyme-linked immunosorbent assay.

As to `Cc1ncsc1-c1ccc([C@H](C)NC(=O)[C@@H]2C[C@@H](O)CN2C(=O)[C@@H](NC(=O)COCCOCCOCC(=O)N2CCN(c3ccc(OC[C@H]4CO[C@](Cn5ccnc5)(c5ccc(Cl)cc5Cl)O4)cc3)CC2)C(C)(C)C)cc1` [SPG-008], on androgen receptor (AR) [1] (24-hr Treatment), half-maximal inhibition (IC50) was put at 3.31 µM, the IC90 turned out to be 8.4 µM and the “Maximum Inhibition” value is reported as 94%. Also, at androgen receptor (AR) [1] (72-hr Treatment), 2.38 µM corresponded to half-maximal inhibition (IC50), the concentration for an effect of 90% (IC90) came out at 7.86 µM and the “Maximum Inhibition” value worked out at 94%.

Turning to `CC(=O)N1CCN(c2ccc(OC[C@H]3CO[C@](Cn4ccnc4)(c4ccc(Cl)cc4Cl)O3)cc2)CC1` (racemic) [SPG-002, Ketoconazole], the “Cell Viability” value in [2] (0.1 μM) turned out to be 97%; in data set [3] (0.1 μM), 95%; in data set [3] (3.0 μM) it was 94%; in [3] (10 μM), 95%; in data set [4] (0.62 μM), 93.61 ± 3.38; in [4] (1.85 μM), 90.96 ± 2.34. Further, the “Cell Viability” value in data set [4] (5.56 μM) is on record as 71.22 ± 0.88; in data set [4] (16.67 μM), 41.59 ± 1.76; in [4] (50 μM), 7.29 ± 12.16. This compound also displayed an IC50 at 72 h in the data set “in vitro” of 11 µM.

Regarding `CC12CCC(=O)C=C1C[C@@H](SC(=O)COCCOCCNC(=O)CC13CC4CC(CC(C4)C1)C3)C1C2CCC2(C)C1CC[C@@]21CCC(=O)O1` (stereo partly shown) [SPG-004], the “Cell Viability” value in [5] (0.1 μM) is 97%. Besides, the “Cell Viability” value in data set [5] (1 μM) is 98%. For the same compound, the “Cell Viability” value in [5] (3 μM) is reported as 99%. Besides, the “Cell Viability” value in data set [5] (10 μM) stood at 98%. In addition, at androgen receptor (AR) [6], the inhibition at 0.1 µM is 11%, the inhibition at 1 µM amounted to 22%, the inhibition at 3 µM is 36% and the inhibition at 10 µM worked out at 42%.

Turning to `CC(=O)S[C@@H]1CC2=CC(=O)CC[C@]2(C)[C@H]2CC[C@@]3(C)[C@@H](CC[C@@]34CCC(=O)O4)[C@H]12` [SPG-001, Spironolactone], the “Cell Viability” value in data set [2] (0.1 μM) was determined as 99%; in [2] (1.0 μM), 98%; in data set [2] (3.0 μM), 98%; in data set [2] (10 μM), 98%; in data set [3] (0.1 μM), 92%; in [3] (1.0 μM) it was 94%. Also, the “Cell Viability” value turned out to be 92% in data set [3] (3.0 μM); 95% in data set [3] (10 μM); 113.05 ± 1.09 in [4] (0.62 μM); 108.09 ± 1.79 in [4] (1.85 μM); 99.27 ± 1.50 in [4] (5.56 μM); 82.73 ± 1.34 in data set [4] (16.67 μM). Moreover, the “Cell Viability” value in data set [4] (50 μM) is 58.33 ± 2.39. Also, in [7], the “skin absorption (in words)” value is recorded as “good amount”. Moreover, in data set [7], the “skin penetration (in words)” value was “good amount”. In “in vitro”, this compound registered an IC50 at 72 h of 50 µM.

On to `O=C(CC12CC3CC(CC(C3)C1)C2)N1CCN(c2ccc(OC[C@H]3CO[C@](Cn4ccnc4)(c4ccc(Cl)cc4Cl)O3)cc2)CC1` [SPG-006], for which the inhibition at 0.1 µM was 8% on androgen receptor (AR) [8] (0.1 μM) and 1% at androgen receptor (AR) [9] (0.1 μM). For the same compound, the inhibition at 1 µM turned out to be 19% on androgen receptor (AR) [8] (1.0 μM) and 5% on androgen receptor (AR) [9] (1.0 μM). The inhibition at 3 µM at androgen receptor (AR) [8] (3.0 μM) stood at 28%; on androgen receptor (AR) [9] (3.0 μM), 20%. Besides, the values for the inhibition at 10 µM at androgen receptor (AR) [8] (10 μM) and at androgen receptor (AR) [9] (10 μM) were 48% and 37%, respectively. The “Cell Viability” value came out at 93% in [3] (0.1 μM), 94% in data set [3] (1.0 μM), 94% in data set [3] (3.0 μM) and 94% in [3] (10 μM).

In the case of `Cc1ncsc1-c1ccc([C@H](C)NC(=O)[C@@H]2C[C@@H](O)CN2C(=O)[C@@H](NC(=O)COCC(=O)N2CCN(c3ccc(OC[C@H]4CO[C@](Cn5ccnc5)(c5ccc(Cl)cc5Cl)O4)cc3)CC2)C(C)(C)C)cc1` [SPG-007], on androgen receptor (AR) [1] (24-hr Treatment), 4.58 µM corresponded to half-maximal inhibition (IC50), the concentration for an effect of 90% (IC90) is 73.8 µM and the “Maximum Inhibition” value is on record as 67%. Moreover, at androgen receptor (AR) [1] (72-hr Treatment), 1.5 µM corresponded to half-maximal inhibition (IC50), the IC90 amounted to 22.2 µM and the “Maximum Inhibition” value is 80%.

Consider `O=C(Nc1ccc([N+](=O)[O-])cc1Cl)c1cc(Cl)ccc1O` [Niclosamide], for which the “Cell Viability” value in data set [4] (0.62 μM) was 34.13 ± 2.99; in data set [4] (1.85 μM) it was 30.65 ± 5.98; in data set [4] (5.56 μM), 25.07 ± 3.81; in data set [4] (16.67 μM), 15.93 ± 7.45; in data set [4] (50 μM), 0.20 ± 6.09. Further, the IC50 at 72 h in “in vitro” was < 0.2 µM.

A word on the IC50: it is the concentration needed to halve the response being measured. Low values mean greater potency in that assay, high ones weaker potency in that assay. As a reminder, the IC90 is the concentration at which the effect reaches the 90% level.
